Source: US20250002450A1, “CATIONIC STEROID COMPOUNDS, METHOD OF OBTAINING THEREOF, FORMULATIONS COMPRISING THEREOF AND THEIR USES” (UNIVERSIDADE DO PORTO, priority 2021, published 2025)
≈ marks a conversion by molar mass, not a printed value. Read-outs that look alike come from different tables or passages of the source.

How the values were obtained:
[1] = test system: Gram-negative and Gram-positive bacteria; test: Antibacterial activity, whole strain panel; type: cell-based; conditions: for spectrum of antibacterial activity (in words): all bacterial strains tested
From the text: (§1) Twelve reference bacterial strains and nine MDR clinically relevant bacterial strains were used in this study. Gram-negative bacteria comprised reference strains E. coli ATCC 25922, K. pneumoniae ATCC 13883, Salmonella enterica serovar Typhimurium CECT 443, P. aeruginosa ATCC 27853, A. baumannii ATCC 19606, C. jejuni ATCC 33560 (ATCC—American Type Culture Collection; CECT—Colección Espanola de Cultivos Tipo); clinical isolates E. coli SA/2, an extended-spectrum β-lactamase (ESBL)-producing strain and P. aeruginosa 33b, a pan-drug-resistant isolate; and animal isolates C. jejuni P5/4, a ciprofloxacin-resistant strain, C. jejuni 4432, C. jejuni 4433, C. jejuni 4448, and E. coli 2252, a COL-resistant strain [42]. Gram-positive strains included S. aureus ATCC 29213, E. faecalis ATCC 29212, S. pyogenes ATCC 19615, and environmental isolates methicillin-resistant S. aureus (MRSA) 66/1 [43], and VAN-resistant enterococci (VRE) E. faecalis B3/101 [44]. Gram-negative fish pathogens Yersinia ruckeri ATCC 29473, Listonella anguillarum ATCC 1924, and Tenacibaculum maritimum ATCC 43397 were also included.
(§2) Strains were kept in Trypto-Casein Soy agar (TSA—Biokar Diagnostics, Allone, Beauvais, France) slants and, before each assay, were sub-cultured in Mueller-Hinton agar (MHA—Biokar Diagnostics, Allone, Beauvais, France). Y. ruckeri ATCC 29473 and L. anguillarum ATCC 1924 were kept in Nutrient Agar (Condalab, Madrid, Spain) and T. maritimum ATCC 43397 was kept in TMM agar (Condalab, Madrid, Spain), and were sub-cultured in the respective culture media before each assay. For S. pyogenes ATCC 19615, CAMHB was supplemented with 3.75% lysed horse blood (LBH—Oxoid, Basingstoke, England), whereas for C. jejuni it was supplemented with 2.5% LHB. Colony-forming unit counts of the inoculum were conducted to determine the initial inoculum size (which should be approximately 5×10^5 CFU/mL). Sterility and growth controls were included in each assay. The 96-well U-shaped untreated polystyrene microtiter plates were incubated for 20 h at 37 degrees C. (42 degrees C. for C. jejuni, in a microaerophilic atmosphere) and the minimal inhibitory concentration (MIC) was determined as the lowest concentration of compound that prevented visible growth. The minimal bactericidal concentration (MBC) was determined by spreading 100 μL of the content of the wells with no visible growth on MH plates. The MBC was determined as the lowest concentration of compound that killed 99.9% of the initial inoculum after overnight incubation at 37 degrees C. Two independent assays were performed for reference and MDR strains.
(§3) An initial screening of the antibacterial activity of the compounds was performed by the Kirby-Bauer disk diffusion method, as recommended by the Clinical and Laboratory Standards Institute (CLSI). Briefly, sterile 6 mm blank paper disks (Oxoid, Basingstoke, England) impregnated with 15 μg of each compound were placed on inoculated MH agar plates. A blank disk with dimethylsulfoxide (DMSO) was used as a negative control. MH inoculated plates were incubated for 18-20 h at 37 degrees C. At the end of incubation, the inhibition halos where measured. The MIC was used to determine the antibacterial activity of each compound, in accordance with the recommendations of the CLSI. Two-fold serial dilutions of the compounds were prepared in Mueller-Hinton Broth 2 (MHB2—Sigma-Aldrich, St. Louis, MO, USA) within the concentration range of 0.062-64 μg/mL. CTX ranging between 0.031-16 μg/mL was used as a control. Sterility and growth controls were included in each assay. Purity checks and colony counts of the inoculum suspensions were also performed in order to ensure that the final inoculum density closely approximates the intended number (5×10^5 CFU/mL). The MIC was determined as the lowest concentration of compound that inhibited growth of the bacteria. The MBC was assessed by spreading 10 μL of culture collected from wells showing no visible growth on MH agar plates. […]

[2] = test system: Tenacibaculum maritimum ATCC 43397; test: Antibacterial disk diffusion; type: cell-based; conditions: for Inhibition zone diameter (disk diffusion): Tenacibaculum maritimum ATCC 43397, footnote *
From the text: as §1, §2, §3

[3] = test system: Streptococcuss pyogenes ATCC 19615; test: Antibacterial MIC/MBC (broth microdilution); type: cell-based, Streptococcus pyogenes; conditions: for antibacterial activity (in words): S. pyogenes ATCC 19615; for MBC / MIC: Streptococcuss pyogenes ATCC 19615
From the text: as §1, §2, §3

[4] = test system: C. jejuni 4432; test: Antibacterial MIC/MBC (broth microdilution); type: cell-based, Campylobacter jejuni
From the text: as §1, §2, §3

[5] = test system: C. jejuni 4448; test: Antibacterial MIC/MBC (broth microdilution); type: cell-based, Campylobacter jejuni
From the text: as §1, §2, §3

[6] = test system: C. jejuni P5/4; test: Antibacterial MIC/MBC (broth microdilution); type: cell-based, Campylobacter jejuni
From the text: as §1, §2, §3

[7] = test system: C. jejuni 4433; test: Antibacterial MIC/MBC (broth microdilution); type: cell-based, Campylobacter jejuni
From the text: as §1, §2, §3

[8] = Streptococcus pyogenes, ATCC19615, read-out: MBC
[9] = Streptococcus pyogenes, ATCC19615, read-out: MIC
[10] = Campylobacter jejuni, read-out: MBC
[11] = Campylobacter jejuni, read-out: MIC

Compound	activity against Gram-negative bacteria (in words) [1]	spectrum of antibacterial activity (in words) [1]	Inhibition zone diameter (disk diffusion) [2] [mm]	MBC [3, 8] [mg/L]	MIC [3, 9] [mg/L]	MBC [4, 10] [mg/L]	MIC [4, 11] [mg/L]	MBC [5, 10] [mg/L]	MIC [5, 11] [mg/L]	MBC [6, 10] [mg/L]	MIC [6, 11] [mg/L]	MBC [7, 10] [mg/L]	MIC [7, 11] [mg/L]	further results
C[C@H](CCC(=O)NCCN)[C@H]1CC[C@H]2[C@@H]3CC[C@@H]4C[C@H](O)CC[C@]4(C)[C@H]3C[C@H](O)[C@]12C [Compound 1, (R)—N-(2-aminoethyl)-4-((3R,5R,8R,9S,10S,12S,13R,14S,17R)-3,12-dihydroxy-10,13-dimethylhexadecahydro-1H-cyclopenta[a]phenanthren-17-yl) pentanamida]	exhibited activities	active in every bacterial strain tested	–	–	–	–	–	–	–	–	–	–	–	Disk diffusion ([2]; Tenacibaculum maritimum ATCC 43397): 20 mm; antibacterial activity (in words) [3]: active; MBC [3]: 64 mg/L (≈ 147 µM); MIC [3]: 64 mg/L (≈ 147 µM); MBC [4]: 64 mg/L (≈ 147 µM); MIC [4]: 64 mg/L (≈ 147 µM); antibacterial activity (in words) [4]: showed antimicrobial activity; MBC [5]: 64 mg/L (≈ 147 µM); MIC [5]: 64 mg/L (≈ 147 µM); antibacterial activity (in words) [5]: showed antimicrobial activity; MBC [6]: 32 mg/L (≈ 73.6 µM); MIC [6]: 32 mg/L (≈ 73.6 µM); antibacterial activity (in words) [6]: active; MBC [7]: 64 mg/L (≈ 147 µM); MIC [7]: 64 mg/L (≈ 147 µM); antibacterial activity (in words) [7]: showed antimicrobial activity
C[C@H](CCC(=O)N1CCN(C(=O)OC(C)(C)C)CC1)[C@H]1CC[C@H]2[C@@H]3CC[C@@H]4C[C@H](O)CC[C@]4(C)[C@H]3C[C@H](O)[C@]12C [Compound 5, tert-butyl 4-((R)-4-((3R,5R,8R,9S,10S,12S,13R,14S,17R)-3,12-dihydroxy-10,13-dimethylhexadecahydro-1H-cyclopenta[a]phenanthren-17-yl)pentanoyl)piperazine-1-carboxylate]	–	–	10	> 64	> 64	> 64	> 64	> 64	> 64	> 64	> 64	> 64	> 64	–
C[C@H](CCC(=O)N1CCOCC1)[C@H]1CC[C@H]2[C@@H]3CC[C@@H]4C[C@H](O)CC[C@]4(C)[C@H]3C[C@H](O)[C@]12C [Compound 3, (R)-4-((3R,5R,8R,9S,10S,12S,13R,14S,17R)-3,12-dihydroxy-10,13-dimethylhexadecahydro-1H-cyclopenta[a]phenanthren-17-yl)-1-morpholinopentan-1-one]	–	–	10	> 64	> 64	> 64	> 64	> 64	> 64	> 64	> 64	> 64	> 64	–
C[C@H](CCC(=O)N1CCNCC1)[C@H]1CC[C@H]2[C@@H]3CC[C@@H]4C[C@H](O)CC[C@]4(C)[C@H]3C[C@H](O)[C@]12C [Compound 9, (R)-4-((3R,5R,8R,9S,10S,12S,13R,14S,17R)-3,12-dihydroxy-10,13-dimethylhexadecahydro-1H-cyclopenta[a]phenanthren-17-yl)-1-(piperazin-1-yl) pentan-1-one]	exhibited activities	broad spectrum of activity	9	> 64	> 64	> 64	> 64	> 64	> 64	> 64	> 64	> 64	> 64	–
C[C@H](CCC(=O)N1CCCCC1)[C@H]1CC[C@H]2[C@@H]3CC[C@@H]4C[C@H](O)CC[C@]4(C)[C@H]3C[C@H](O)[C@]12C [Compound 2, (R)-4-((3R,5R,8R,9S,10S,12S,13R,14S,17R)-3,12-dihydroxy-10,13-dimethylhexadecahydro-1H-cyclopenta[a]phenanthren-17-yl)-1-(piperidin-1-yl) pentan-1-one]	–	–	18	32 (≈ 69.6 µM)	32 (≈ 69.6 µM)	> 64	64 (≈ 139 µM)	> 64	> 64	> 64	> 64	> 64	> 64	antibacterial activity (in words) [3]: active; antibacterial activity (in words) [4]: showed antimicrobial activity; antibacterial activity (in words) [5]: showed antimicrobial activity; antibacterial activity (in words) [7]: showed antimicrobial activity
C[C@H](CCC(=O)N1CCN(C(=O)CC[C@H](C)[C@@H]2CC[C@@H]3[C@H]4CC[C@H]5C[C@@H](O)CC[C@@]5(C)[C@@H]4C[C@@H](O)[C@]32C)CC1)[C@H]1CC[C@H]2[C@@H]3CC[C@@H]4C[C@H](O)CC[C@]4(C)[C@H]3C[C@H](O)[C@]12C [Compound 4, (R)-4-((3R,5R,8R,9S,10S,12S,13R,14S,17R)-3,12-dihydroxy-10,13-dimethylhexadecahydro-1H-cyclopenta[a]phenanthren-17-yl)-1-(4-((S)-4-((3S,5S,8S,9R,10R,12R,13S,14R,17S)-3,12-dihydroxy-10,13-dimethylhexadecahydro-1H-cyclopenta[a]phenanthren-17-yl)pentanoyl)piperazin-1-yl) pentan-1-one]	exhibited activities	active in eight of the tested strains	10	> 64	> 64	> 64	> 64	> 64	> 64	> 64	> 64	> 64	> 64	–
C[C@H](CCC(=O)NCCNc1ccccc1)[C@H]1CC[C@H]2[C@@H]3CC[C@@H]4C[C@H](O)CC[C@]4(C)[C@H]3C[C@H](O)[C@]12C [Compound 8, (R)-4-((3R,5R,8R,9S,10S,12S,13R,14S,17R)-3,12-dihydroxy-10,13-dimethylhexadecahydro-1H-cyclopenta[a]phenanthren-17-yl)-N-(2-(phenylamino)ethyl)pentanamide]	–	–	12	> 64	> 64	> 64	> 64	> 64	> 64	> 64	> 64	> 64	> 64	–
CCN(CC)CCNC(=O)CC[C@@H](C)[C@H]1CC[C@H]2[C@@H]3CC[C@@H]4C[C@H](O)CC[C@]4(C)[C@H]3C[C@H](O)[C@]12C [Compound 6, (R)—N-(2-(diethylamino)ethyl)-4-((3R,5R,8R,9S,10S,12S,13R,14S,17R)-3,12-dihydroxy-10,13-dimethylhexadecahydro-1H-cyclopenta[a]phenanthren-17-yl)pentanamide]	exhibited activities	–	10	> 64	> 64	> 64	> 64	> 64	> 64	> 64	> 64	> 64	> 64	–
